Reference: patent US20090105292A9, “Glucocorticoid Receptor Modulator Compounds and Methods” (LIGAND PHARMACEUTICALS INCORPORATED, priority 2004, published 2009)
Where two headings read alike, the source gives them in different places.

Columns and labels:
[1] = molecular target: T1, human glucocorticoid receptor protein (GR) (Homo sapiens, UniProt P04150); test: Glucocorticoid receptor binding assay ([3H]dexamethasone competition, GR lysate)
T1 construct: made in house; host or cells: Spodoptera frugiperda Sf21 insect cells (baculovirus)
T1 sequence (P04150 1-777): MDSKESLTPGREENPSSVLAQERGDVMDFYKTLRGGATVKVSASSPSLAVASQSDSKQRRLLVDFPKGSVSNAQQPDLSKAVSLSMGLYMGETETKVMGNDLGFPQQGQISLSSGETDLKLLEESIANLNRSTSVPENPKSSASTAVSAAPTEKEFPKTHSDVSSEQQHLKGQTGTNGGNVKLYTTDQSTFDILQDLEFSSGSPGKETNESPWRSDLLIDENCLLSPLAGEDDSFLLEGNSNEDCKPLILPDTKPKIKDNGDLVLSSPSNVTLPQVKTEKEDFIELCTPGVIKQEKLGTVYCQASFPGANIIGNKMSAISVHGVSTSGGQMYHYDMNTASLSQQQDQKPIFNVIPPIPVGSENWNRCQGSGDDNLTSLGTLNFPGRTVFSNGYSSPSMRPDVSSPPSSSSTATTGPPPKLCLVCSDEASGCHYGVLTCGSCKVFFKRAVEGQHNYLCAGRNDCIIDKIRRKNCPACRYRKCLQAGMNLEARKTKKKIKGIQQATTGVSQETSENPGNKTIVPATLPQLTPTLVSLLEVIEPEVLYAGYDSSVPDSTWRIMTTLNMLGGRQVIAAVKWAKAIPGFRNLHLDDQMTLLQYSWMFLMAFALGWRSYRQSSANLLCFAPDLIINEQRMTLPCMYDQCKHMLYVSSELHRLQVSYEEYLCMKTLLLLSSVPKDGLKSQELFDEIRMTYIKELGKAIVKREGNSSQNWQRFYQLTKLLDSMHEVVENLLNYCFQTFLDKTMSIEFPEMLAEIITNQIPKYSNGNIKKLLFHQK
Description: A baculovirus expression plasmid containing cDNA encoding the human glucocorticoid receptor protein (GR) was prepared using standard techniques. […] That expression plasmid was co-transfected together with wild type Autographa californica multiple nuclear polyhedrosis virus DNA into Spodopter frugiperda-21 (Sf-21) cells to generate recombinant virus containing GR cDNA. See e.g., O'Reilly, D. R., Miller, L. K., Luckow, V. A., Regulation of expression of a baculovirus ecdysteroid UDP glucosyltransferase gene. […] That recombinant virus containing GR cDNA was collected.
A suspension culture of uninfected Sf21 cells was grown to a density of 1.2×10^6 cells/ml and then infected with the recombinant virus containing GR cDNA at a multiplicity of infection of 2. Those infected Sf21 cells were incubated for 48 hours and then collected by centrifugation at 1000×g for 10 minutes at 4° C. The resulting cell pellets were resuspended in lysis buffer (50 mM Potassium Phosphate buffer, pH 7.0, 10 mM Monothioglycerol, 5 mM DTT, 20 mM Sodium Molybdate, 1 mM PMSF, 1 μg/mL aprotinin, and 10 μg/mL leupeptin) and incubated for 15 minutes on ice. Those resuspended cell pellets were homogenized using a Dounce homogenizer and a B pestle. A volume of 2 M KCl was added to the homogenized cell pellets to a final concentration of 0.4 M. The resulting GR lysates were centrifuged at 100,000×g for 60 min at 4° C. and stored for use in binding assays.
Binding assay samples were prepared in separate mini-tubes in a 96-well format at 4° C. Each binding assay sample was prepared in a volume of 250 μL of Assay Buffer (10% glycerol, 25 mM sodium phosphate, 10 mM potassium fluoride, 10 mM sodium molybdate, 0.25 mM CHAPS, 2 mM DTT and 1 mM EDTA, (adjusted to pH 7.5)) containing 50 μg of GR lysate; 2-4 nM of [^3H]dexamethasone at 84 Ci/mmol; and either a reference compound or a test compound. […] Each reference compound and test compound was assayed at varying concentrations, ranging from 0 to 10^−5 M. Each concentration of each reference compound and each test compound was assayed in triplicate. The assay samples were incubated for 16 hours at 4° C.
The assay samples were then centrifuged and the supernatants were discarded. The resulting pellets were washed twice with assay buffer lacking DTT. Radioactivity in counts per minute (CPM) of each washed pellet was determined by liquid scintillation counter (MicroBeta™, Wallach).
Specific binding for a particular sample was calculated using the equation: (Sample CPM)−(Average Non-specific CPM)
Average Non-specific CPM was defined as the amount of radioactivity from samples containing an excess (i.e. 1000 nM) of unlabeled dexamethasone. […] Ki values were determined using the Cheng-Prusoff equation using a previously determined Kd value for dexamethasone: Ki=IC50/(1+[L]/Kd)
[L]=concentration of labeled dexamethasone
Kd=dissociation constant of labeled dexamethasone

[2] = competition with 2-4 nM [3H]dexamethasone, 16 hours at 4° C., Cheng-Prusoff, read-out: Ki

In the case of COc1c(O)ccc2c1-c1ccc3c(c1/C(=C/c1sccc1C(C)=O)O2)C(C)=CC(C)(C)N3, the melting point is reported as 222 to 224 °C.

With COc1c(O)ccc2c1-c1ccc3c(c1/C(=C/c1sccc1CNC1CC1)O2)C(C)=CC(C)(C)N3 [Compound 222, (Z)-5-(2′-(3′-(Cyclopropylaminomethyl)thienylmethylidene))1,2-dihydro-9-hydroxy-10-methoxy-2,2,4-trimethyl-5H-chromeno[3,4-f]quinoline] the Ki [1, 2] was 2 to 3 nM.

For COc1c(O)ccc2c1-c1ccc3c(c1/C(=C/c1sccc1C(O)C(F)(F)F)O2)C(C)=CC(C)(C)N3 (racemic) [Compound 202, (±)-(Z)-5-(2′-(3′-(1″-Hydroxy-2″,2″,2″-trifluoroethyl)thienylmethylidene))1,2-dihydro-9-hydroxy-10-methoxy-2,2,4-trimethyl-5H-chromeno[3,4-f]quinoline], the Ki [1, 2] was 1 to 2 nM.

COCCN(CCOC)C(=O)c1ccsc1/C=C1\Oc2ccc(O)c(OC)c2-c2ccc3c(c21)C(C)=CC(C)(C)N3 [Compound 138, (Z)-5-(2′-(3′-(di(methoxyethyl)aminocarbonyl)thienylmethylidene))-1,2-dihydro-9-hydroxy-10-methoxy-2,2,4-trimethyl-5H-chromeno[3,4-f]quinoline] gave a Ki [1, 2] of 1 to 2 nM.

COc1c(O)ccc2c1-c1ccc3c(c1/C(=C/c1sccc1C(=O)c1ccsc1)O2)C(C)=CC(C)(C)N3 [Compound 215, (Z)-5-(2′-(3′-(Thien-3″-ylcarbonyl)thienylmethylidene))1,2-dihydro-9-hydroxy-10-methoxy-2,2,4-trimethyl-5H-chromeno[3,4-f]quinoline] gave a Ki [1, 2] of 1 to 2 nM.

COc1c(O)ccc2c1-c1ccc3c(c1/C(=C/c1cccc(C(F)(F)F)c1F)O2)C(C)=CC(C)(C)N3 [Compound 29, (Z)-5-(2′-fluoro-3′-trifluoromethylbenzylidene)-1,2-dihydro-9-hydroxy-10-methoxy-2,2,4-trimethyl-5H-chromeno[3,4-f]quinoline] gave a Ki [1, 2] of 2 to 3 nM.

Work on COc1c(O)ccc2c1-c1ccc3c(c1/C(=C/c1ccccc1CO)O2)C(C)=CC(C)(C)N3 [Compound 159, (Z)-5-(2′-Hydroxymethylbenzylidene)1,2-dihydro-9-hydroxy-10-methoxy-2,2,4-trimethyl-5H-chromeno[3,4-f]quinoline] yielded a Ki [1, 2] of 1 to 2 nM.

With COc1c(O)ccc2c1-c1ccc3c(c1/C(=C/c1ccccc1F)O2)C(C)=CC(C)(C)N3 [Compound 12, (Z)-5-(2′-fluorobenzylidene)-1,2-dihydro-9-hydroxy-10-methoxy-2,2,4-trimethyl-5H-chromeno[3,4-f]quinoline] the Ki [1] was < 1 nM.

Work on C=Cc1ccc(/C=C2\Oc3ccc(O)c(OC)c3-c3ccc4c(c32)C(C)=CC(C)(C)N4)cc1 [Compound 63, (Z)-5-(4′-vinylbenzylidene)-1,2-dihydro-9-hydroxy-10-methoxy-2,2,4-trimethyl-5H-chromeno[3,4-f]quinoline] yielded a Ki [1, 2] of 1 to 2 nM.

In the case of COc1cccc(/C=C2\Oc3ccc(O)c(OC)c3-c3ccc4c(c32)C(C)=CC(C)(C)N4)c1 [Compound 15, (Z)-5-(3′-methoxybenzylidene)-1,2-dihydro-9-hydroxy-10-methoxy-2,2,4-trimethyl-5H-chromeno[3,4-f]quinoline], the Ki [1, 2] is reported as < 1 nM.

Work on COc1c(O)ccc2c1-c1ccc3c(c1/C(=C/c1oc(C)cc1C(=O)N1CCCCC1)O2)C(C)=CC(C)(C)N3 [Compound 151, (Z)-5-(2′-(5′-Methyl-3′-(piperidinecarbonyl)furanylmethylidene))1,2-dihydro-9-hydroxy-10-methoxy-2,2,4-trimethyl-5H-chromeno[3,4-f]quinoline] yielded a Ki [1, 2] of 1 to 2 nM.

For COCc1ccsc1/C=C1\Oc2ccc(O)c(OC)c2-c2ccc3c(c21)C(C)=CC(C)(C)N3 [Compound 193, (Z)-5-(2′-(3′-Methoxymethylthienylmethylidene))1,2-dihydro-9-hydroxy-10-methoxy-2,2,4-trimethyl-5H-chromeno[3,4-f]quinoline], the Ki [1, 2] was 1 to 2 nM.

With CCN(CC)C(=O)c1ccccc1/C=C1\Oc2ccc(O)c(OC)c2-c2ccc3c(c21)C(C)=CC(C)(C)N3 [Compound 75, (Z)-5-(2′-diethylaminocarbonylbenzylidene)-1,2-dihydro-9-hydroxy-10-methoxy-2,2,4-trimethyl-5H-chromeno[3,4-f]quinoline] the Ki [1, 2] was < 1 nM.

In the case of COc1c(O)ccc2c1-c1ccc3c(c1/C(=C/c1cccc(C)c1C(=O)N1CCCC1)O2)C(C)=CC(C)(C)N3 [Compound 154, (Z)-5-(3′-Methyl-2′-(pyrrolidinecarbonyl)benzylidene)1,2-dihydro-9-hydroxy-10-methoxy-2,2,4-trimethyl-5H-chromeno[3,4-f]quinoline], the Ki [1, 2] is reported as > 3 nM.

COc1c(O)ccc2c1-c1ccc3c(c1/C(=C/c1sccc1C(=O)N(C)C)O2)C(C)=CC(C)(C)N3 [Compound 132, (Z)-5-(2′-(3′-(dimethylaminocarbonyl)thienylmethylidene))-1,2-dihydro-9-hydroxy-10-methoxy-2,2,4-trimethyl-5H-chromeno[3,4-f]quinoline] gave a Ki [1, 2] of 1 to 2 nM.

With COc1c(O)ccc2c1-c1ccc3c(c1/C(=C/c1cccc(OC(F)(F)F)c1)O2)C(C)=CC(C)(C)N3 [Compound 22, (Z)-5-(3′-trifluoromethoxybenzylidene)-1,2-dihydro-9-hydroxy-10-methoxy-2,2,4-trimethyl-5H-chromeno[3,4-f]quinoline] the Ki [1] was > 3 nM.

With COc1c(O)ccc2c1-c1ccc3c(c1/C(=C/c1cccc4ccccc14)O2)C(C)=CC(C)(C)N3 [Compound 111, (Z)-5-(1′-naphthylmethylidene)-1,2-dihydro-9-hydroxy-10-methoxy-2,2,4-trimethyl-5H-chromeno[3,4-f]quinoline] the Ki [1, 2] was > 3 nM.

COc1c(O)ccc2c1-c1ccc3c(c1/C(=C/c1cc(Cl)ccc1Cl)O2)C(C)=CC(C)(C)N3 [Compound 14, (Z)-5-(2′,5′-dichlorobenzylidene)-1,2-dihydro-9-hydroxy-10-methoxy-2,2,4-trimethyl-5H-chromeno[3,4-f]quinoline] gave a Ki [1, 2] of 2 to 3 nM.
